Source: paper PMC11601558, “SLC6A19 inhibition facilitates urinary neutral amino acid excretion and lowers plasma phenylalanine” (JCI Insight, 2024)
Several values for one entry are separate records, joined by “and”; a condition that tells them apart may be missing. Identical values can stand only once.

Legend:
healthy volunteers = test: Phase 1 safety and tolerability, single ascending dose (SAD) cohorts; type: in vivo, human; settings: for AEs leading to IP discontinuation / Any CTCAE Grade ≥ 3 / Any TEAE / Death / SAE / TEAE Alanine aminotransferase increased / TEAE Aspartate aminotransferase increased / TEAE Blood creatine phosphokinase increased / TEAE Catheter site pain / TEAE Dizziness / TEAE Headache / TEAE Hematuria / TEAE Nausea / TEAE Pyrexia / TEAE Syncope / TEAE Upper respiratory tract infection / TEAE Urinary tract infection: n = 6
Procedure: Parts A and B of this phase 1, randomized, double-blind, placebo-controlled SAD and MAD oral dose study with JNT-517 were conducted in healthy volunteers. The primary objective for these studies was to assess the safety and tolerability of single and multiple doses of JNT-517 in healthy participants. The secondary objective for these studies was to assess the PK of single and multiple oral doses of JNT-517.
Eligible participants included males and females 18 to 55 years of age, medically healthy with no clinically notable medical history, a BMI of 18–40 kg/m^2 and total body weight > 50 kg (110 lbs), and who have been nonsmokers for at least 2 weeks prior to and throughout dosing.
In total, 40 participants who were healthy adult were randomized to receive JNT-517 (10–170 mg) or placebo (3:1 ratio) in 5 cohorts of 8 participants as SADs. […] Within each SAD cohort, a sentinel group of 2 participants were initially randomized to receive JNT-517 or placebo in a 1:1 ratio. Once safety was confirmed for these 2 sentinel participants over a 48-hour observation period, the remaining 6 participants in the same cohort were randomized 5:1 to receive JNT-517 or placebo. Both JNT-517 and placebo were administered as an on-site compounded suspension.
In both SAD and MAD studies, safety and tolerability were assessed by AE monitoring, clinical laboratory tests (blood chemistries, hematology, coagulation, serology, and urinalysis), vital signs, 12-lead electrocardiograms, and physical examinations. Safety assessment and corresponding samples were collected on day-1 prior to dosing and days 1, 2, 3, and 8 for the SAD study or throughout the 14 days of dosing and day 21 for the MAD study.

[1] = JN-170 plasma pharmacokinetics in C57Bl/6J mice, single oral dose; type: in vivo, mouse; set-up: JN-170 plasma level (Fig 2a): unit not given here
Procedure: Male homozygous BTBR-Pah<enu2>/J (Pah^enu2) aged 10–13 weeks were purchased from Jackson Laboratory (no. 002232). Immediately before dosing, each animal’s bladder was manually emptied and a plasma sample was drawn. Animals were dosed by oral gavage with vehicle (10% DMSO, 20% 2-hydroxypropyl-β-cyclodextrin [Sigma-Aldrich]) followed by a 1-week washout prior to dosing with JN-170 at doses ranging from 50 to 250 mg/kg. Following dosing with vehicle or JN-170, animals were individually placed in metabolic cages to collect urine samples. After collection of each urine sample, cages were rinsed with ultra-pure water to recover residual analytes. Blood samples were collected predose as well as 1, 3, 8, 12, and 24 hours after dosing with vehicle or JN-170 into tubes with EDTA as a […], and plasma was separated by centrifuging samples at 2,200g for 5 minutes at 4°C. Throughout the study, mice had access to food and water ad libitum. Plasma and urine samples were stored at –80°C until processing.Ten-week-old male WT C57Bl/6J animals (Si Bei Fu Laboratory Animal Technology Co. Ltd.) were dosed either with vehicle or 50–250 mg/kg JN-170 by oral gavage and blood and urine samples were collected as described. All animals had unrestricted access to food and water during the study; C57Bl/6J were kept on rodent maintenance diet from Beijing Keao Xieli, Pah^enu2 mice were kept on Teklad diet no. T.2018.
Plasma sample analyses were carried out by liquid chromatography tandem mass spectrometry (LC-MS/MS). Plasma samples were mixed 1:1 with carbamazepine or ^13C6-Phe as internal standards for JN-170 and Phe, respectively. Plasma proteins were precipitated by adding 4 volumes of acetonitrile (ACN) and 0.1% formic acid (FA) followed by centrifugation for 5 minutes at 2,100g. Supernatants were diluted 1:1 in ACN and 0.1% FA. For JN-170, a Waters HSS T3 reversed phase column was used for separation using a binary gradient of 0.1% FA in water (mobile phase A) to 0.1% in ACN (mobile phase B). At a flow rate of 0.8 mL/min, the mobile phase gradient increased from an initial 25% phase B to 95% phase B over 30 seconds. After, 1.5 minutes, the gradient was returned to 25% mobile phase B. For detection of Phe, an Acquity UPLC ethylene bridged hybrid (BEH) amide column was used, with a binary gradient of 10 mM ammonium acetate in 95:5:1 H2O:ACN:FA (mobile phase A) to 10 mM ammonium acetate in 95:5:1 ACN:H2O:FA (mobile phase B). At a flow rate of 0.5 mL/min, the mobile phase gradient changed from an initial 100% phase B to 50% phase B over 2.1 minutes. It was returned to 100% phase B after 4 minutes. Analytes were detected using a Sciex API-5500 in multiple reaction monitoring mode using an electrospray ionization source in the positive ion mode with the following ion transitions: m/z 435.2/84.1 (JN-170), 237.1/194.1 (carbamazepine), 166.1/120.1 (Phe), 172.2/126.2 for (^13C6-Phe). Analyte concentrations were calculated with a 1/×^2 linear regression over a concentration range of 1 or 2 to 5,000 ng/mL for JN-170 and 0.05–100 ng/mL for Phe.

## NC(=O)N1CCC[C@@H](N(C(=O)NCc2ccc(OC(F)(F)F)cc2F)C2CC2)C1 [JNT-517]
Healthy volunteers; SAD 10 mg
  AEs leading to IP discontinuation: 0 Number (%)
  Any CTCAE Grade ≥ 3: 0 Number (%)
  Any TEAE: 2 (33.3) Number (%)
  Death: 0 Number (%)
  SAE: 0 Number (%)
  TEAE Alanine aminotransferase increased: 0 Number (%)
  TEAE Aspartate aminotransferase increased: 0 Number (%)
  TEAE Blood creatine phosphokinase increased: 0 Number (%)
  TEAE Catheter site pain: 1 (16.7) Number (%)
  TEAE Dizziness: 1 (16.7) Number (%)
  TEAE Headache: 1 (16.7) Number (%)
  TEAE Hematuria: 0 Number (%)
  TEAE Nausea: 1 (16.7) Number (%)
  TEAE Pyrexia: 0 Number (%)
  TEAE Syncope: 0 Number (%)
  TEAE Upper respiratory tract infection: 0 Number (%)
  TEAE Urinary tract infection: 0 Number (%)
Healthy volunteers; SAD 25 mg
  AEs leading to IP discontinuation: 0 Number (%)
  Any CTCAE Grade ≥ 3: 1 (16.7) Number (%)
  Any TEAE: 2 (33.3) Number (%)
  Death: 0 Number (%)
  SAE: 0 Number (%)
  TEAE Alanine aminotransferase increased: 1 (16.7) Number (%)
  TEAE Aspartate aminotransferase increased: 1 (16.7) Number (%)
  TEAE Blood creatine phosphokinase increased: 1 (16.7) Number (%)
  TEAE Catheter site pain: 0 Number (%)
  TEAE Dizziness: 0 Number (%)
  TEAE Headache: 0 Number (%)
  TEAE Hematuria: 1 (16.7) Number (%)
  TEAE Nausea: 0 Number (%)
  TEAE Pyrexia: 0 Number (%)
  TEAE Syncope: 0 Number (%)
  TEAE Upper respiratory tract infection: 0 Number (%)
  TEAE Urinary tract infection: 0 Number (%)
Healthy volunteers; SAD 50 mg
  AEs leading to IP discontinuation: 0 Number (%)
  Any CTCAE Grade ≥ 3: 1 (16.7) Number (%)
  Any TEAE: 2 (33.3) Number (%)
  Death: 0 Number (%)
  SAE: 0 Number (%)
  TEAE Alanine aminotransferase increased: 0 Number (%)
  TEAE Aspartate aminotransferase increased: 0 Number (%)
  TEAE Blood creatine phosphokinase increased: 0 Number (%)
  TEAE Catheter site pain: 0 Number (%)
  TEAE Dizziness: 0 Number (%)
  TEAE Headache: 1 (16.7) Number (%)
  TEAE Hematuria: 0 Number (%)
  TEAE Nausea: 0 Number (%)
  TEAE Pyrexia: 0 Number (%)
  TEAE Syncope: 1 (16.7) Number (%)
  TEAE Upper respiratory tract infection: 1 (16.7) Number (%)
  TEAE Urinary tract infection: 0 Number (%)
Healthy volunteers; SAD 100 mg
  AEs leading to IP discontinuation: 0 Number (%)
  Any CTCAE Grade ≥ 3: 0 Number (%)
  Any TEAE: 0 Number (%)
  Death: 0 Number (%)
  SAE: 0 Number (%)
  TEAE Alanine aminotransferase increased: 0 Number (%)
  TEAE Aspartate aminotransferase increased: 0 Number (%)
  TEAE Blood creatine phosphokinase increased: 0 Number (%)
  TEAE Catheter site pain: 0 Number (%)
  TEAE Dizziness: 0 Number (%)
  TEAE Headache: 0 Number (%)
  TEAE Hematuria: 0 Number (%)
  TEAE Nausea: 0 Number (%)
  TEAE Pyrexia: 0 Number (%)
  TEAE Syncope: 0 Number (%)
  TEAE Upper respiratory tract infection: 0 Number (%)
  TEAE Urinary tract infection: 0 Number (%)
Healthy volunteers; SAD 170 mg
  AEs leading to IP discontinuation: 0 Number (%)
  Any CTCAE Grade ≥ 3: 0 Number (%)
  Any TEAE: 1 (16.7) Number (%)
  Death: 0 Number (%)
  SAE: 0 Number (%)
  TEAE Alanine aminotransferase increased: 0 Number (%)
  TEAE Aspartate aminotransferase increased: 0 Number (%)
  TEAE Blood creatine phosphokinase increased: 0 Number (%)
  TEAE Catheter site pain: 0 Number (%)
  TEAE Dizziness: 0 Number (%)
  TEAE Headache: 0 Number (%)
  TEAE Hematuria: 0 Number (%)
  TEAE Nausea: 0 Number (%)
  TEAE Pyrexia: 1 (16.7) Number (%)
  TEAE Syncope: 0 Number (%)
  TEAE Upper respiratory tract infection: 0 Number (%)
  TEAE Urinary tract infection: 1 (16.7) Number (%)
Healthy volunteers; SAD cohorts, all JNT-517 doses (7 of 30)
  incidence of adverse events (AE): 23.3%
Healthy volunteers; healthy participants, SAD 10–170 mg and MAD 14 days
  safety and tolerability: safe and well tolerated

## N#Cc1ccc(-c2noc([C@]3(C(F)(F)F)CCN(C(=O)NCCC4(N)CC4)C3)n2)cc1 [JN-170]
[1]; 50 mg/kg oral, 1 h, individual C57Bl/6 mice
  JN-170 plasma level (Fig 2a): 4800 and 3580 and 3220 and 2280 and 3950 and 3920
[1]; 50 mg/kg oral, 3 h, individual C57Bl/6 mice
  JN-170 plasma level (Fig 2a): 1290 and 798 and 1160 and 1370 and 1130 and 1480
[1]; 50 mg/kg oral, 8 h, individual C57Bl/6 mice
  JN-170 plasma level (Fig 2a): 54.1
[1]; 100 mg/kg oral, 1 h, individual C57Bl/6 mice
  JN-170 plasma level (Fig 2a): 5300 and 7590 and 9540 and 8120 and 9150 and 8490
[1]; 100 mg/kg oral, 3 h, individual C57Bl/6 mice
  JN-170 plasma level (Fig 2a): 3330 and 3500 and 3620 and 5290 and 4430 and 4000
[1]; 100 mg/kg oral, 8 h, individual C57Bl/6 mice
  JN-170 plasma level (Fig 2a): 1010 and 870 and 627
[1]; 200 mg/kg oral, 1 h, individual C57Bl/6 mice
  JN-170 plasma level (Fig 2a): 12900 and 18300 and 14800 and 17900 and 16400 and 14100
[1]; 200 mg/kg oral, 3 h, individual C57Bl/6 mice
  JN-170 plasma level (Fig 2a): 9760 and 9530 and 8870 and 8820 and 12800 and 12000
[1]; 200 mg/kg oral, 8 h, individual C57Bl/6 mice
  JN-170 plasma level (Fig 2a): 2260 and 1430 and 1410 and 2700 and 2480 and 4110
[1]; 250 mg/kg oral, 1 h, individual C57Bl/6 mice
  JN-170 plasma level (Fig 2a): 18600 and 13000 and 21300 and 27800 and 20500 and 19600
[1]; 250 mg/kg oral, 3 h, individual C57Bl/6 mice
  JN-170 plasma level (Fig 2a): 13400 and 8320 and 12600 and 16100 and 11000 and 13600
[1]; male, C57Bl/6J, mouse, plasma, oral, 250 mg/kg, 250 mg/kg oral, 8 h, individual C57Bl/6 mice, read-out: JN-170 plasma level (Fig 2a)
  concentration at 8 h: 3650 ng/mL
[1]; male, C57Bl/6J, mouse, plasma, oral, 250 mg/kg, 250 mg/kg oral, 12 h, individual C57Bl/6 mice, read-out: JN-170 plasma level (Fig 2a)
  concentration at 12 h: 1760 ng/mL
[1]; male, C57Bl/6J, mouse, plasma, po
  bioavailability: ~5%
